Legend:
HEL92.1.7 = HEL92.1.7 cell proliferation experiment (Cell Titer-Glo); type: cell-based; conditions: Homo sapiens, HEL 92.1.7; HEL92.1.7 cells, 72 hours
[1] = Acute toxicity test, single oral administration to ICR mice (MTD); type: in vivo; conditions: ICR, mouse, in vivo, po, read-out: MTD (maximum tolerated dose)
ICR mice = assay: as above; type: in vivo
[2] = Pharmacokinetic test in SD rats, intragastric administration; type: in vivo; conditions: rat, po, single intragastric administration, 25 mg/kg, plasma; for Cmax: read-out: Blood concentration Cmax; for AUC(0-t): read-out: Curve area AUClast; for half-life: read-out: Half life t1/2 (converted); for Tmax: read-out: Time to peak Tmax
Method: SD rats were used as the test animals.
Standard curve and preparation and processing of quality control samples:
Stock solution was diluted with 50% acetonitrile/water solution to obtain standard working solutions of 0.04, 0.10, 0.20, 0.40, 1.00, 2.00, 4.00 μg/mL, and quality control working solutions of 0.10, 1.00, 3.00 μg/mL. 2.50 μL of standard curve working solutions and quality control working solutions were added to 47.5 μL of blank rat plasma, respectively, to obtain standard curve solutions having analyte concentrations of 2.00, 5.00, 10.00, 20.00, 50.00, 100.00, 200.00 ng/mL and quality control samples having concentrations of 5.00, 50.00, and 150.00 ng/mL. 200 μL of acetonitrile (containing 5 ng/mL of the internal standard loratadine) was added. After vortexing for 3 minutes, the solutions were centrifuged at 15000 rpm at 4° C. for 15 minutes. 100 μL of the supernatant was taken for LC-MS/MS analysis. WinNonlin® 8.0 was used to calculate the experimental results.

TF-1 = TF-1 cell proliferation experiment (CellTiter Glo); type: cell-based; conditions: Homo sapiens; TF-1 cells, 72 hours; read-out: TF-1 (μM), proliferation inhibition
JAK3 = target: T1, JAK3 (Homo sapiens, UniProt P52333); assay: Kinase activity test on JAK3 (Caliper EZ Reader conversion rate)
T1 sequence (P52333 1-1124): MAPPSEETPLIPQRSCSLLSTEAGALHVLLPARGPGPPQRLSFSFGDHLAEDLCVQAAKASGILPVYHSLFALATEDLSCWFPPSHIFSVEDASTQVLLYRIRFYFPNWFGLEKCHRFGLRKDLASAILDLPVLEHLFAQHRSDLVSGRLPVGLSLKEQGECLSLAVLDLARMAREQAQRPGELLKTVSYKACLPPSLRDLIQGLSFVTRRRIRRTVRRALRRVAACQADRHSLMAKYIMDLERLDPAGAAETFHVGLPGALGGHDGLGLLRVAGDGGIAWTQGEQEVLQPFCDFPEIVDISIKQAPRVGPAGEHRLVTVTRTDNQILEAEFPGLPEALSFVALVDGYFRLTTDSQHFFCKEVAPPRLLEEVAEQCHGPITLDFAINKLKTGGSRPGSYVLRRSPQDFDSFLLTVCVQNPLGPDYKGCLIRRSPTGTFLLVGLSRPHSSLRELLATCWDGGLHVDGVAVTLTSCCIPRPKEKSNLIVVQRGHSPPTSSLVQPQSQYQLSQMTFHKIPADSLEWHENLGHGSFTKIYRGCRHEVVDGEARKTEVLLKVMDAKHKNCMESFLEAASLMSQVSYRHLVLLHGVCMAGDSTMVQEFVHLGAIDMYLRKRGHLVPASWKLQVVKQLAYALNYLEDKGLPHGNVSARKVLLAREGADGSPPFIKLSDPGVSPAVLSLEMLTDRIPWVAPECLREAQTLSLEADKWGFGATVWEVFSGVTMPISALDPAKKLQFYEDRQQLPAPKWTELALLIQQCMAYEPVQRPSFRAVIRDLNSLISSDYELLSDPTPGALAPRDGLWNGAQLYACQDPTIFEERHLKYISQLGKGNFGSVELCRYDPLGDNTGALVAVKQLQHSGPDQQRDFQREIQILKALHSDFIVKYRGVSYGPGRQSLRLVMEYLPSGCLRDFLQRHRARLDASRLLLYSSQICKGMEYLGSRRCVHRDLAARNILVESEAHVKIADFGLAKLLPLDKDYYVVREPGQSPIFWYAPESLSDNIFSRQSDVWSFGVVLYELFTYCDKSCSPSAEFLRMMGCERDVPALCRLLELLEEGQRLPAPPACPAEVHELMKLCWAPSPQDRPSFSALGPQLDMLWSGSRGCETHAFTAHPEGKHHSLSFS

JAK2 = JAK2 (Homo sapiens, UniProt O60674); assay: Kinase activity test on JAK2 (Caliper EZ Reader conversion rate); conditions: for JAK1/JAK2 / JAK3/JAK2: ratio of IC50 values; for JAK1/JAK2: selectivity for JAK2 over JAK1; for JAK3/JAK2: selectivity for JAK2 over JAK3
JAK1 = JAK1 (Homo sapiens, UniProt P23458); assay: Kinase activity test on JAK1 (Caliper EZ Reader conversion rate)
Chain of JAK1 (P23458 whole entry): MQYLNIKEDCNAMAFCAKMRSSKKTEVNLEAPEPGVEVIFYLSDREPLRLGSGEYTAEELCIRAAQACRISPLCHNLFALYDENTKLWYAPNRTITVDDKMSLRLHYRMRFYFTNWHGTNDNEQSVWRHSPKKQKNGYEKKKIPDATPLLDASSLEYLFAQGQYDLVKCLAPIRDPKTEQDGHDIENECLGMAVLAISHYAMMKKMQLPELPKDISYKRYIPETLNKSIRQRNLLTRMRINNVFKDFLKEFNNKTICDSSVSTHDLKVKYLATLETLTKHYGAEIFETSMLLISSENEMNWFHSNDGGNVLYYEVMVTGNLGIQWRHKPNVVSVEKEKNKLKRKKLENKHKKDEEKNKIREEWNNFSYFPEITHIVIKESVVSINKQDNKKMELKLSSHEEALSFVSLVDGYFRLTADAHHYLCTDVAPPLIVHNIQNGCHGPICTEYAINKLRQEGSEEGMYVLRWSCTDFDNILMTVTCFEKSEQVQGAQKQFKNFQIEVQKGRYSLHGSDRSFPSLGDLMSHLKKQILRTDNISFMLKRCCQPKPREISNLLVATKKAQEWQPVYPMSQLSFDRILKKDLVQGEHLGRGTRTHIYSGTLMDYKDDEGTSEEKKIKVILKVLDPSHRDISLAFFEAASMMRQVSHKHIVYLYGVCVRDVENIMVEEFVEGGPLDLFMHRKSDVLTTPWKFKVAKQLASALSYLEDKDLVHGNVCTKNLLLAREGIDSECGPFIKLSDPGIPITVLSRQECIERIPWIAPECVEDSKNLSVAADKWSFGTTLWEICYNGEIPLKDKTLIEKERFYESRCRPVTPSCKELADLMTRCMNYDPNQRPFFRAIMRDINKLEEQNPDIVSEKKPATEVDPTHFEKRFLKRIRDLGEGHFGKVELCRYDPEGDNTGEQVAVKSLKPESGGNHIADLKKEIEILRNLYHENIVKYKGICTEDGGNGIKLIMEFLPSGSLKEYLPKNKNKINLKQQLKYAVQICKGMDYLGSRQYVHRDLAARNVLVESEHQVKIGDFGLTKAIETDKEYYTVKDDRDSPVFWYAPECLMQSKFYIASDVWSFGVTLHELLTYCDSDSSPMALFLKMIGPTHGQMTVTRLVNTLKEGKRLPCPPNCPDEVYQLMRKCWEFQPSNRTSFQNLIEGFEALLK

Chain of JAK2 (O60674 whole entry): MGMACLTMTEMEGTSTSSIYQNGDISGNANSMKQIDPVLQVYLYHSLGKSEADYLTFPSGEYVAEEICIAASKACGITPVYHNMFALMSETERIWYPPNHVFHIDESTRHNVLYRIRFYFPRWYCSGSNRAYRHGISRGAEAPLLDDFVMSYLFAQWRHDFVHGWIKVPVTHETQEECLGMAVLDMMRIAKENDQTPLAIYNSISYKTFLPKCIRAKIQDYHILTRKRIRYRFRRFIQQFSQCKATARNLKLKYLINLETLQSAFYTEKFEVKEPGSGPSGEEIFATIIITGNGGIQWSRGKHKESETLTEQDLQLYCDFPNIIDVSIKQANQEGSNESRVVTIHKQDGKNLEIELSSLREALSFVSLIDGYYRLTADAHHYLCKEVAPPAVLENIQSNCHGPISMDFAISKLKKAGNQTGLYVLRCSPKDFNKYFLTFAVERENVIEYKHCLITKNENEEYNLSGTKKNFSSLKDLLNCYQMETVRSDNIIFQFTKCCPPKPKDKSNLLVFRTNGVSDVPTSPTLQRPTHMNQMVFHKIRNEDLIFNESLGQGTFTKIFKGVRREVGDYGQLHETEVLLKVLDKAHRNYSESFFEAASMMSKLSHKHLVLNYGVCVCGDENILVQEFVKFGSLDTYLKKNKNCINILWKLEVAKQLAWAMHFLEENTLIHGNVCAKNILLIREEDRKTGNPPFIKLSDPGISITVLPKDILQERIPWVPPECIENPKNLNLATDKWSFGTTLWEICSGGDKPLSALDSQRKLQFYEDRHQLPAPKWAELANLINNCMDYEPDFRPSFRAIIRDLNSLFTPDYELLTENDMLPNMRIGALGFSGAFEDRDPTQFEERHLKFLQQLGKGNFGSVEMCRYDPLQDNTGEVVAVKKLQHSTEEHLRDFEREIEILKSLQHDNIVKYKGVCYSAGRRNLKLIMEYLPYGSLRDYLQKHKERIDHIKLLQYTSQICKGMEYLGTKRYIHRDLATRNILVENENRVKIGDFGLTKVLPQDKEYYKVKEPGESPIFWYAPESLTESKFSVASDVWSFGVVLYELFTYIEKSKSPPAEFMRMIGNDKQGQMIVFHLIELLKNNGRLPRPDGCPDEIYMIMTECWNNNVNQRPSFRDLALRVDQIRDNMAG

SMILES | IC50 (HEL92.1.7) [µM] | MTD at 6 days [1] [mg/kg] | MTD (maximum tolerated dose) (ICR mice) [mg/kg] | Cmax [2] [ng/mL] | AUC(0-t) [2] [ng·h/mL] | half-life [2] [h] | Tmax [2] [h] | IC50 (TF-1) [µM] | IC50 (JAK3) [nM] | IC50 (JAK2) [nM] | JAK1/JAK2 (JAK2) | JAK3/JAK2 (JAK2) | IC50 (JAK1) [nM]
CN1CCN(CCOc2ccc(Nc3ncc4c(n3)N(c3cccc(S(=O)(=O)NC(C)(C)C)c3)CC4)cc2)CC1 [Compound I-4] | 0.34 | ≥ 1000 | 1000 | 1100 | 807 | 6.2 | 1.5 | 0.18 | 1020 | 1.2 | 87 | 850 | 105
CN1CCN(c2ccc(Nc3ncc4c(n3)N(c3cccc(S(=O)(=O)NC(C)(C)C)c3)CC4)cc2)CC1 [Compound I-15] | 0.17 | > 2000 | >2000 | 1240 | 934 | 6.8 | 1.5 | 0.12 | 598 | 0.73 | 99 | 819 | 72
CC(C)(C)NS(=O)(=O)c1cccc(N2CCc3cnc(Nc4ccc(OC5CCNCC5)cc4)nc32)c1 [Compound I-19] | 0.21 | ≥ 1000 | 1500 | 1120 | 935 | 6.2 | 1.5 | 0.17 | 1520 | 0.9 | 134 | 1689 | 121
CC(C)(C)NS(=O)(=O)c1cccc(N2CCc3cnc(Nc4ccc(C5CCNCC5)cc4)nc32)c1 [Compound I-20] | 0.25 | > 2000 | >2000 | 1030 | 912 | 6.3 | 2 | 0.19 | 1430 | 1 | 130 | 1433 | 130

Source: patent US12421238B2, “Selective dihydropyrrolopyrimidine JAK2 inhibitors” (CHENGDU JINRUI FOUNDATION BIOTECH CO., LTD., priority 2019, dated 2025)
